Test results taken from patent US9587002B2, “Sequence of nucleotides and peptides GSE 24.2 of dyskerin, which can induce telomerase activity, method for obtaining same, therapeutic compositions and applications thereof” (CONSEJO SUPERIOR DE INVESTIGACIONES CIENTIFICAS, priority 2005, dated 2017).

Experiments:
telomerase [1] = molecular target: T1, telomerase (Homo sapiens, UniProt O14746); details: different cell lines / G-quadruplex formation in telomeres; cited from earlier work
hTR = assay: RT-PCR expression of hTR in 293T cell lines after cisplatin; format: cell-based, human; details: pLNCX and pLNCX 24.2 cells; 3 μg/ml, 3 and 7 days
Protocol: (§1) FIG. 7.—Expression levels of different genes related to telomerase in 293T cells: pLNCX and 24.2 following treatment with cisplatin. The cells were seeded in 60-mm plates, treated with 3 μg/ml of cDDP following pre-treatment with 0.5 μg/ml of cisplatin for 3 days and, subsequently, collected at the times specified in the figure (3 and 7 days). Following the extraction of RNA, RT-PCR was performed with oligos specific for hTERT, hTR and dyskerin in order to study the expression levels of the messenger RNAs. As a starting RNA control, oligos for the amplification of GAPDH were used.
(§2) One of the explanations for the lower sensitivity of pLNCX 24.2 cells to cisplatin could be a change in the levels of some of the components of the telomerase complex. Therefore, the expression levels of different genes involved in the telomerase complex and the effect that cisplatin had on their expression were studied. To this end, the pLNCX and pLNCX 24.2 cells were pre-treated with 0.5 μg/ml and treated with 3 μg/ml of cisplatin for 3 and 7 days. Using oligos specific for hTR, hTERT and dyskerin, the expression levels of these genes and the effect of cisplatin on said expression were studied. […] This change in the sensitivity to cisplatin could explain, at least partially, the difference in sensitivity in the telomerase activity assays.
(§3) Expression of genes by RT-PCR. […]

telomerase [2] = molecular target: T1, telomerase; assay: Telomerase activity (TRAP) of 293T cell lines treated with cisplatin; format: cell-based; design: endogenous in cells; host or cells: 293T cells stably transfected with empty pLNCX or pLNCX 24.2; details: 293T pLNCX cells; pre-treated 0.5 μg/ml 3 days, then 3 μg/ml, 7-day treatment
Protocol: FIG. 5.—Telomerase activity of the 293T cell lines: pLNCX and 24.2 following treatment with cisplatin. The cells were seeded in 60-mm plates, pre-treated with 0.5 μg/ml of cisplatin for 3 days and subsequently treated with cisplatin at a dose of 3 μg/ml […]. The telomerase activity was measured by means of the Intergen TRAPeze assay. The experiment was performed 3 times, with similar results.
To this end, an assay of telomerase activity was performed using the TRAP method with the pLNCX and pLNCX 24.2 cell lines (FIG. 5), pre-treating them for 3 days with 0.5 μg/ml of cisplatin; subsequently, they were treated with 3 μg/ml of cisplatin for 3 and 7 days. […]
Telomerase activity assay based on the TRAP method Wright et al., 1995). The telomerase activity was measured using the TRAPeze telomerase detection kit (Intergen) in accordance with the instruction manual. The protein concentration of each extract was quantified by means of the Bradford method using the BIORAD reagent and after performing a PCR in accordance with the manual instructions; polyacrylamide gel electrophoresis was performed with the reaction products under non-denaturing conditions and, subsequently, it was stained with Ethidium bromide for 30 minutes.

hTERT = assay: RT-PCR expression of hTERT in 293T cell lines after cisplatin; format: cell-based, human; details: pLNCX cells; 3 μg/ml, 3 days of treatment
Protocol: as §1, §2, §3

dyskerin = assay: RT-PCR expression of dyskerin in 293T cell lines after cisplatin; format: cell-based, human; details: pLNCX and pLNCX 24.2 cells; 3 μg/ml, 3 and 7 days
Protocol: as §1, §2, §3

T1 sequence (O14746 whole entry): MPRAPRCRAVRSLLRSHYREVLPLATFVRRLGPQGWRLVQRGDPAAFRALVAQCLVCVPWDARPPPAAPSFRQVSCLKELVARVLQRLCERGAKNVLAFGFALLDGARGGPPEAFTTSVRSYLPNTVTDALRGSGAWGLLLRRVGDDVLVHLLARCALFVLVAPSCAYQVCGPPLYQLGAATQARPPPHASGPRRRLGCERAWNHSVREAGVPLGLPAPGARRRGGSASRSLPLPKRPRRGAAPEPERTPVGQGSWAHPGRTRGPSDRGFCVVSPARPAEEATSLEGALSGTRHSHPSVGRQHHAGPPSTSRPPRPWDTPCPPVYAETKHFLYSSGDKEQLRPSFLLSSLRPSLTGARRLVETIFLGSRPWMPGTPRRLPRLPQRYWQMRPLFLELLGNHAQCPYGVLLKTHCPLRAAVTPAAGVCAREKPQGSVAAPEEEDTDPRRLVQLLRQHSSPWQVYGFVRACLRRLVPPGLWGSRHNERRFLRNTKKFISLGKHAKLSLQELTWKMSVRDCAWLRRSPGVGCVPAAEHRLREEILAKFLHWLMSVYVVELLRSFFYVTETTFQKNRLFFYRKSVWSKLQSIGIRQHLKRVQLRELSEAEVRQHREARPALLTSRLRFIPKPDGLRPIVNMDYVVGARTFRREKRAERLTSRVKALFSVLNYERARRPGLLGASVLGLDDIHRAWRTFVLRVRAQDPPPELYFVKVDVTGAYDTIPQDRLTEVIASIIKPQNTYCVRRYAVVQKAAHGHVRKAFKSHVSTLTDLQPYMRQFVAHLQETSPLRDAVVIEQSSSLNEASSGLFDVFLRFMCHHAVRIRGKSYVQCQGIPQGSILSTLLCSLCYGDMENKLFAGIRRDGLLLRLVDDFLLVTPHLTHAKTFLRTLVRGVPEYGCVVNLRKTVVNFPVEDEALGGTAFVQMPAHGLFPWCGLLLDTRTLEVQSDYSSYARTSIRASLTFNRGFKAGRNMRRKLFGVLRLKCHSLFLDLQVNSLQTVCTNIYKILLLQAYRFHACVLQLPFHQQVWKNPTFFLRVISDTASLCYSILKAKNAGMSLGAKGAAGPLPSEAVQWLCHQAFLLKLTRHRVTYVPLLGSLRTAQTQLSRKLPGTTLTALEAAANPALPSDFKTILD
T1 sequence (O60832 2-514 partner limits assumed): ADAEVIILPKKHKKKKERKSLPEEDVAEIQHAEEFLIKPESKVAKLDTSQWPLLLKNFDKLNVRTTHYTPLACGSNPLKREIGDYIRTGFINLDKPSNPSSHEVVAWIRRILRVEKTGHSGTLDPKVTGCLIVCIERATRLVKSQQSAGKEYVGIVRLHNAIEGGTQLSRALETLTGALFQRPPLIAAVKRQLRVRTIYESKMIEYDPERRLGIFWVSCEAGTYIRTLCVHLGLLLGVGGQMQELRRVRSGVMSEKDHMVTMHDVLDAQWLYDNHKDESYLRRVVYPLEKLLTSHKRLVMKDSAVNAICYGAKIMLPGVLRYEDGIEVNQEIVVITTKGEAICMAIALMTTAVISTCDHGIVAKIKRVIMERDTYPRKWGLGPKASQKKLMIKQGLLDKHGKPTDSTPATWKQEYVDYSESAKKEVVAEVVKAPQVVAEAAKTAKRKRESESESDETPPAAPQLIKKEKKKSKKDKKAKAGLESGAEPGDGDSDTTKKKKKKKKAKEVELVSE
T1 sequence (Q9NPE3 whole entry partner): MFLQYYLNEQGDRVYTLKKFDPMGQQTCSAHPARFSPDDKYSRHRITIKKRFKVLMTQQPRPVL
T1 sequence (Q9NX24 whole entry partner): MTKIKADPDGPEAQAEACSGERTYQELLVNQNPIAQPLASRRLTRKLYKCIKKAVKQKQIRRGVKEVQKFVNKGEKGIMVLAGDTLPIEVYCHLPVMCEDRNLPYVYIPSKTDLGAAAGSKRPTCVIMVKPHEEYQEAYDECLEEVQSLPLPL
T1 sequence (Q9NY12 whole entry partner): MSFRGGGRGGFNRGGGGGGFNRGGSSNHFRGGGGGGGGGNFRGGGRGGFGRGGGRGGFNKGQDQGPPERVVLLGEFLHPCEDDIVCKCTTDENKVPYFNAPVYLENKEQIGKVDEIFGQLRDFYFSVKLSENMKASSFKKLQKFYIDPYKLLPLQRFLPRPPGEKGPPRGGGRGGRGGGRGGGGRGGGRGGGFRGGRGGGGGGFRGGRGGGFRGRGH
T1 sequence (Q9BUR4 whole entry partner): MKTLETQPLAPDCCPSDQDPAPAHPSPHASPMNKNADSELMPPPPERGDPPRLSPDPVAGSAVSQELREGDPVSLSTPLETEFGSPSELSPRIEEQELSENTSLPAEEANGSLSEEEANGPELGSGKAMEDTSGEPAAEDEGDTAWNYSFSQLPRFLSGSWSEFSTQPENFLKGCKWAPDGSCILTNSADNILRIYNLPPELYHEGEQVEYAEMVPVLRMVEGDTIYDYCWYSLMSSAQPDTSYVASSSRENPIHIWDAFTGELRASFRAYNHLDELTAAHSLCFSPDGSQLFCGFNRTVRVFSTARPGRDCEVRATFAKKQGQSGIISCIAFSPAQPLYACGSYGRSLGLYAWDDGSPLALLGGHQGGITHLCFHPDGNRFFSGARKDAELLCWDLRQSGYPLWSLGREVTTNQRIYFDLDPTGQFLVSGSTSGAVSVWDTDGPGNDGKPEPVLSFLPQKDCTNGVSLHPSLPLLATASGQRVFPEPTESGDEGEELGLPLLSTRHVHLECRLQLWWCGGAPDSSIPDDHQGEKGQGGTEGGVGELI

For N.N.[Cl][Pt][Cl] [cisplatin], the “inhibition of telomerase activity (literature)” value (telomerase [1]) is listed as “capable of inhibiting telomerase activity”, the “effect of cisplatin on hTR expression” value (hTR) is listed as “no effect” and the “effect of cisplatin on telomerase activity” value (telomerase [2]) is listed as “caused inhibition of telomerase activity”. The “effect of cisplatin on hTERT expression” value (hTERT) was “reduction in the expression of hTERT” and the “effect of cisplatin on dyskerin expression” value (dyskerin) was “no effect”.
